Where two headings read alike, the source gives them in different places.
Test system: BRD
Assay: BRD reducing activity with added metal ions and inhibitors
Assay type: biochemical, Micrococcus luteus IFO 13867
[1] = addition level 0.1 mM, activity without addition = 100%
[2] = addition level 0.01 mM, activity without addition = 100%
[3] = addition level 1 mM, activity without addition = 100%

For O=C(O)c1cc[c]([Hg][Cl])cc1 [PCMB], the Relative activity [1] was 78%.

Compound O=C(O)CI [Iodoacetic acid] has a Relative activity of 89%.

O=C(O)c1cc(SSc2ccc([N+](=O)[O-])c(C(=O)O)c2)ccc1[N+](=O)[O-] [DTNB] was tested, and the Relative activity [2] was 93%.

For O=S(=O)([O-])[O-].[Cu+2] [CuSO4], the Relative activity [1] was 6%, the Relative activity [3] was 5% and the “Inhibition of the enzyme” value (result in words) was “inhibited”.

Compound O=c1c(O)c(-c2ccc(O)c(O)c2)oc2cc(O)cc(O)c12 [Quercetin] has a Relative activity [2] of 94%.

For O=S(=O)([O-])[O-].[Zn+2] [ZnSO4], the Relative activity [3] was 99%.

In the case of O=S(=O)(F)Cc1ccccc1 [PMSF, phenylmethylsulfonyl fluoride], the Relative activity [3] is reported as 89%.

With [Cl-].[Cl-].[Co+2] [CoCl2] the Relative activity was 99%.

With [Cl][Mn][Cl] [MnCl2] the Relative activity [3] was 89%.

O=C(O)CN(CCN(CC(=O)O)CC(=O)O)CC(=O)O [EDTA] showed a Relative activity of 88%.

Work on CCN1C(=O)C=CC1=O [NEM] yielded a Relative activity [3] of 94%.

Work on c1cnc2c(c1)ccc1cccnc12 [1,10-Phenanthroline] yielded a Relative activity [3] of 90%.

O=C1NC(=O)C(c2ccccc2)(c2ccccc2)N1 [5,5-Diphenylhydantoin] gave a Relative activity (addition level 0.5 mM, activity without addition = 100%) of 99%.

O=S(=O)([O-])[O-].[Mg+2] [MgSO4] gave a Relative activity [3] of 99%.

— US7033808B2, “Carbonyl reductase, gene thereof and method of using the same” (Kaneka Corporation, priority 2000, dated 2006)
